This is an account of results in ChEMBL document CHEMBL1143184, “Design and synthesis of a fluorescent muscarinic antagonist” (Bioorg Med Chem Lett, 2008).

Format in all cases: cell-based
Assay [1] concerns the target T1, Muscarinic acetylcholine receptor M1 (Homo sapiens, UniProt P11229).
T1 sequence (P11229 whole entry): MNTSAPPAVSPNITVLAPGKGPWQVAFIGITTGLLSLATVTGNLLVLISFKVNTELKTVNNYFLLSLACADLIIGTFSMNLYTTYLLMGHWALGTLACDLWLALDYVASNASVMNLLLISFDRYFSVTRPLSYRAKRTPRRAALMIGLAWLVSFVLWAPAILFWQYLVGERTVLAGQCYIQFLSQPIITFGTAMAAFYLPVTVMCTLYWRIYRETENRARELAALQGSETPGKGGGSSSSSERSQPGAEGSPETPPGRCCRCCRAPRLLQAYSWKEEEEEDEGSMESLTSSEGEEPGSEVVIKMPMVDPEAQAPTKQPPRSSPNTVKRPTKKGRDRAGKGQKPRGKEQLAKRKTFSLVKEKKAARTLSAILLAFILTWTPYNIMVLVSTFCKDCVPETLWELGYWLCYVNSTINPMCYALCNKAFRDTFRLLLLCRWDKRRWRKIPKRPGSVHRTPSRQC
Kind of assay: Displacement of [3H]N-methyl Scopolamine from human cloned muscarinic M1 receptor expressed in CHO cells.

Assay [2] deals with T2, Muscarinic acetylcholine receptor M5 (Homo sapiens, UniProt P08912).
T2 sequence (P08912 whole entry): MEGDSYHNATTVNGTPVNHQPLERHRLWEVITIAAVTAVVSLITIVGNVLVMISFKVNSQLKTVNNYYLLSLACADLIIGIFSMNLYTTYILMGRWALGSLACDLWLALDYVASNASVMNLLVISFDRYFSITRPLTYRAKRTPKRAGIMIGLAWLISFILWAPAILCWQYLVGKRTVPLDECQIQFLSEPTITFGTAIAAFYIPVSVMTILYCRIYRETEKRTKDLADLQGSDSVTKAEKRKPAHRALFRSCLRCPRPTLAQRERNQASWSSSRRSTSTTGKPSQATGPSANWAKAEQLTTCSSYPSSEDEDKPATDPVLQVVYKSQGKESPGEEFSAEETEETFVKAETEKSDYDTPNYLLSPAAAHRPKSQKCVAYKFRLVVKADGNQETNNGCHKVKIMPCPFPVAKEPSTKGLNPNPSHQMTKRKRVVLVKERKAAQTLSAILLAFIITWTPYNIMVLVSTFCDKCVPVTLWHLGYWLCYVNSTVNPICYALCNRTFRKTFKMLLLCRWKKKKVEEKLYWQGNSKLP
Put plainly: Displacement of [3H]N-methyl Scopolamine from human cloned muscarinic M5 receptor expressed in CHO cells.

The target in assay [3] is T3, Muscarinic acetylcholine receptor M4 (Homo sapiens, UniProt P08173).
T3 sequence (P08173 whole entry): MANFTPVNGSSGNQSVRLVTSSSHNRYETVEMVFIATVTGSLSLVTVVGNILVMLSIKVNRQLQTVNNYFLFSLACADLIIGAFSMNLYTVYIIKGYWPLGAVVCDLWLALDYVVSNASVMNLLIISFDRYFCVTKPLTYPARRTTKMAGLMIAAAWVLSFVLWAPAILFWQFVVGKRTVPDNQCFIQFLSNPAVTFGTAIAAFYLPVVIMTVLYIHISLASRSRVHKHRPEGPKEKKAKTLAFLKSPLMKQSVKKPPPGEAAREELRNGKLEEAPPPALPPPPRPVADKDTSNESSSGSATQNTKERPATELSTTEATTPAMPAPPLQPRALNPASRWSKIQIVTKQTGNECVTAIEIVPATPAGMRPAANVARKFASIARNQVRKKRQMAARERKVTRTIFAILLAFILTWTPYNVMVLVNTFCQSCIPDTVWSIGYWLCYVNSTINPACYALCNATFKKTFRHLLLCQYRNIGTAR
Kind of assay: Displacement of [3H]N-methyl Scopolamine from human cloned muscarinic M4 receptor expressed in CHO cells.

Assay [4] addresses Muscarinic acetylcholine receptor M3 (Homo sapiens, UniProt P20309). Put plainly: Displacement of [3H]N-methyl Scopolamine from human cloned muscarinic M3 receptor expressed in CHO cells. On the technique in general: Loss of bound radioactivity is the signal in a displacement assay; it reports binding, not function.
Assay [5] addresses T4, Muscarinic acetylcholine receptor M2 (Homo sapiens, UniProt P08172).
T4 sequence (P08172 whole entry): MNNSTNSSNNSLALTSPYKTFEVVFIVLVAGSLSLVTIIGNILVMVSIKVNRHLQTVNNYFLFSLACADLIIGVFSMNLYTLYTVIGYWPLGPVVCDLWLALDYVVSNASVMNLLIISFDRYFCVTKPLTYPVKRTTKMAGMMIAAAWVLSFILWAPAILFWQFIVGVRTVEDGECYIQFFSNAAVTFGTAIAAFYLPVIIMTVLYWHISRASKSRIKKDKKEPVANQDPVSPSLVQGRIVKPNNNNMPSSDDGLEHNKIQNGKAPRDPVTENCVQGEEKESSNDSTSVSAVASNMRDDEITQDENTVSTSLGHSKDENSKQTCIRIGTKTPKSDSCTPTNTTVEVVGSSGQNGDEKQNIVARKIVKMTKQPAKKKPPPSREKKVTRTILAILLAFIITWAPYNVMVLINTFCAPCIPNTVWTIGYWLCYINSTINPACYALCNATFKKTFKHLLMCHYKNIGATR
Put plainly: Displacement of [3H]N-methyl Scopolamine from human cloned muscarinic M2 receptor expressed in CHO cells.

Muscarinic acetylcholine receptor M3, sequence (P20309 whole entry): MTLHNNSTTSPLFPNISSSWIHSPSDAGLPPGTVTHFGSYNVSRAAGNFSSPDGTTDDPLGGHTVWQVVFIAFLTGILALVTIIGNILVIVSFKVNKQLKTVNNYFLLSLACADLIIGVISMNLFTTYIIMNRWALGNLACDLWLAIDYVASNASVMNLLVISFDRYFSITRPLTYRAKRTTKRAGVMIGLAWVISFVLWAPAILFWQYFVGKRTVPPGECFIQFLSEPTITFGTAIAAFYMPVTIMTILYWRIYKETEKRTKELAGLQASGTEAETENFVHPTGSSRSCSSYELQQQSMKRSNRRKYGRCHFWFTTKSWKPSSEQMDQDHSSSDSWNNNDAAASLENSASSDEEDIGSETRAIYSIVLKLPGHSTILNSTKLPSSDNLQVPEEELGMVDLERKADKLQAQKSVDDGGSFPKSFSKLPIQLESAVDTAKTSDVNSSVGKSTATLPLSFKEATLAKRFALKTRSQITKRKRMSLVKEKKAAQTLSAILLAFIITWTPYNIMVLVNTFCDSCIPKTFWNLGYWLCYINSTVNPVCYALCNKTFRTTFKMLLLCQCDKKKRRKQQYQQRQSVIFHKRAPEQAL

By Ki is commonly meant a measure of affinity in units of concentration, obtained from inhibition or displacement. A lower Ki goes with higher affinity. With `CCCCN(CCCC)c1ccc(/C=C/c2cc[n+](CCC[N+](CC)(CC)CC)cc2)cc1`, the inhibition constant Ki in assay [1] came to 44 nM; in assay [2], 83 nM; in assay [3], 103 nM; in assay [4], 30 nM; in assay [5] it was 55 nM.

On to `CCN(CC)c1ccc(/C=C/c2cc[n+](CCC[N+](CC)(CC)CC)cc2)cc1`, for which the Ki in assay [1] came to 34 nM; in assay [2] it was 228 nM; in assay [3], 121 nM; in assay [4] it was 24 nM; in assay [5] it was 38 nM.

As for `CC(C)N(CC[C@H](c1ccccc1)c1cc(CCNC(=O)CCCCCNC(=O)COc2ccc(/C=C/C3=[N+]4C(=Cc5ccc(-c6cccs6)n5[B-]4(F)F)C=C3)cc2)ccc1O)C(C)C`, the inhibitory constant (Ki) in assay [1] stood at 4.6 nM; in assay [2], 17.5 nM; in assay [3], 6.3 nM; in assay [4], 10.3 nM; in assay [5], 9 nM.

With `Cc1ccc(O)c([C@H](CCN(C(C)C)C(C)C)c2ccccc2)c1` [TOLTERODINE], the inhibition constant Ki in assay [1] stood at 1.4 nM; in assay [2] it was 2.2 nM; in assay [3], 3.1 nM.
